# Tested on: A549 NSCLC cells
# Test: Cellular cytotoxicity assay (Alamar Blue), A549
# Assay type: cell-based
# Settings: Homo sapiens, 72 h, upper end given as ≧100, read-out: IC50 (μM), cytotoxicity towards A549 NSCLC cells
# In short: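 Cells were dosed 24 h after seeding with semi-log compound dilutions in quadruplicate, then incubated 72 h at 37 °C, 5% CO2. Viability read by Resazurin reduction (4 h, fluorescence 544/590 nm) relative to untreated 0.5% DMSO controls; IC50 by non-linear regression.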
row,SMILES,IC50
1,"COc1ccc(NC(=O)C(=O)N2CCc3nc(C(=O)Nc4ccccc4N)sc3C2)cc1 [Example 65, N-(2-aminophenyl)-5-{[(4-methoxyphenyl)amino](oxo)acetyl}-4,5,6,7-tetrahydro[1,3]thiazolo[5,4-c]pyridine-2-carboxamide]",≥ 0.2 µM
2,"CC(C)S(=O)(=O)N1CCc2nc(C(=O)Nc3ccccc3N)sc2C1 [Example 164, N-(2-aminophenyl)-5-(isopropylsulfonyl)-4,5,6,7-tetrahydro[1,3]thiazolo[5,4-c]pyridine-2-carboxamide]",≥ 0.2 µM
3,"Nc1ccccc1NC(=O)c1nc2c(s1)CN(C(=O)Nc1ccc(N3CCC3)nc1)CC2 [Example 35, N^2-(2-aminophenyl)-N^5-(6-azetidin-1-ylpyridin-3-yl)-6,7-dihydro[1,3]thiazolo[5,4-c]pyridine-2,5(4H)-dicarboxamide]",≥ 0.2 µM
4,"COc1ccc(N)c(NC(=O)c2nc3c(s2)CN(C(=S)Nc2cccnc2)CC3)c1 [Example 107, N-(2-amino-5-methoxyphenyl)-5-[(pyridin-3-ylamino)carbonothioyl]-4,5,6,7-tetrahydro[1,3]thiazolo[5,4-c]pyridine-2-carboxamide]",≥ 0.2 µM
5,"CC(=Nc1ccccc1)N1CCc2nc(C(=O)Nc3cc(C(C)C)ccc3N)sc2C1 [Example 135, N-(2-amino-5-isopropylphenyl)-5-[N-phenylethanimidoyl]-4,5,6,7-tetrahydro[1,3]thiazolo[5,4-c]pyridine-2-carboxamide]",≥ 0.2 µM
6,"Nc1ccccc1NC(=O)c1nc2c(s1)CN(C(=O)c1cnc3ccccc3c1)CC2 [Example 94, N-(2-aminophenyl)-5-(quinolin-3-ylcarbonyl)-4,5,6,7-tetrahydro[1,3]thiazolo[5,4-c]pyridine-2-carboxamide]",≥ 0.2 µM
7,"CN(C)c1ccc(NC(=O)N2CCc3nc(C(=O)Nc4cc(-c5cccs5)ccc4N)sc3C2)cc1 [Example 55, N^2-[2-amino-5-(2-thienyl)phenyl]-N^5-[4-(dimethylamino)phenyl]-6,7-dihydro[1,3]thiazolo[5,4-c]pyridine-2,5(4H)-dicarboxamide]",≥ 0.2 µM
8,"CN(C)c1ccc(N(C)C(=O)N2CCc3nc(C(=O)Nc4ccccc4N)sc3C2)cc1 [Example 22, N^2-(2-aminophenyl)-N^5-[4-(dimethylamino)phenyl]-N^5-methyl-6,7-dihydro-[1,3]thiazolo[5,4-c]pyridine-2,5(4H)-dicarboxamide]",≥ 0.2 µM
9,"Nc1ccccc1NC(=O)c1nc2c(s1)CN(C(=O)Nc1ccc(Oc3ccccc3)cc1)CC2 [Example 6, N^2-(2-aminophenyl)-N5-(4-phenoxyphenyl)-6,7-dihydro[1,3]thiazolo[5,4-c]pyridine-2,5(4H)-dicarboxamide]",≥ 0.2 µM
10,"Nc1ccccc1NC(=O)c1nc2c(s1)CN(S(=O)(=O)c1ccc(C(F)(F)F)cc1)CC2 [Example 161, N-(2-aminophenyl)-5-{[4-(trifluoromethyl)phenyl}sulfonyl]-4,5,6,7-tetrahydro[1,3]thiazolo[5,4-c]pyridine-2-carboxamide]",≥ 0.2 µM
11,"Nc1ccccc1NC(=O)c1nc2c(s1)CN(c1ccc(C(F)(F)F)cn1)CC2 [Example 195, N-(2-aminophenyl)-5-[5-(trifluoromethyl)pyridin-2-yl]-4,5,6,7-tetrahydro[1,3]thiazolo[5,4-c]pyridine-2-carboxamide]",≥ 0.2 µM
12,"COc1ccc(N)c(NC(=O)c2nc3c(s2)CN(C(=C[N+](=O)[O-])Nc2ccc(C(C)C)cc2)CC3)c1 [Example 143, N-(2-amino-5-methoxyphenyl)-5-{1-[(4-isopropylphenyl)amino]-2-nitrovinyl}-4,5,6,7-tetrahydro[1,3]thiazolo[5,4-c]pyridine-2-carboxamide]",≥ 0.2 µM
13,"COc1ccc(N=C(C)N2CCc3nc(C(=O)Nc4cc(C(C)C)ccc4N)sc3C2)cc1 [Example 132, N-(2-amino-5-isopropylphenyl)-5-[N-(4-methoxyphenyl)ethanimidoyl]-4,5,6,7-tetrahydro[1,3]thiazolo[5,4-c]pyridine-2-carboxamide]",≥ 0.2 µM
14,"CC(=O)Nc1ccc(S(=O)(=O)N2CCc3nc(C(=O)Nc4ccccc4N)sc3C2)cc1 [Example 155, 5-[(4-acetamidophenyl)sulfonyl]-N-(2-aminophenyl)-4,5,6,7-tetrahydro[1,3]thiazolo[5,4-c]pyridine-2-carboxamide]",≥ 0.2 µM
15,"Nc1ccccc1NC(=O)c1nc2c(s1)CN(C(=O)C(=O)Nc1cccc3cnccc13)CC2 [Example 68, N-(2-aminophenyl)-5-[(isoquinolin-5-ylamino)(oxo)acetyl]-4,5,6,7-tetrahydro[1,3]thiazolo[5,4-c]pyridine-2-carboxamide]",≥ 0.2 µM
16,"CC(C)c1ccc(N)c(NC(=O)c2nc3c(s2)CN(C(=C[N+](=O)[O-])Nc2ccccc2)CC3)c1 [Example 145, N-(2-amino-5-isopropylphenyl)-5-[1-anilino-2-nitrovinyl]-4,5,6,7-tetrahydro[1,3]thiazolo[5,4-c]pyridine-2-carboxamide]",≥ 0.2 µM

row,SMILES,IC50
1,"Cc1ccc(S(=O)(=O)Nc2ccc(N3CCc4nc(C(=O)Nc5ccccc5N)sc4C3)cc2)cc1 [Example 199, N-(2-aminophenyl)-5-(4-{[(4-methylphenyl)sulfonyl]amino}phenyl)-4,5,6,7-tetrahydro[1,3]thiazolo[5,4-c]pyridine-2-carboxamide]",≥ 0.2 µM
2,"COc1ccc(NC(=O)N2CCc3nc(C(=O)Nc4cc(C(C)C)ccc4N)sc3C2)cc1OC [Example 48, N^2-(2-amino-5-isopropylphenyl)-N^5-(3,4-dimethoxyphenyl)-6,7-dihydro[1,3]thiazolo[5,4-c]pyridine-2,5(4H)-dicarboxamide]",≥ 0.2 µM
3,"CC(=Nc1ccc(N(C)C)cc1)N1CCc2nc(C(=O)Nc3ccccc3N)sc2C1 [Example 134, N-(2-aminophenyl)-5-{N-[4-(dimethylamino)phenyl]ethanimidoyl}-4,5,6,7-tetrahydro[1,3]thiazolo[5,4-c]pyridine-2-carboxamide]",≥ 0.2 µM
4,"COc1ccc(N)c(NC(=O)c2nc3c(s2)CN(S(=O)(=O)c2ccc(C)cc2)CC3)c1 [Example 169, N-(2-amino-5-methoxyphenyl)-5-[(4-methylphenyl)sulfonyl]-4,5,6,7-tetrahydro[1,3]thiazolo[5,4-c]pyridine-2-carboxamide]",≥ 0.2 µM
5,"COc1ccc(C(=O)N2CCc3nc(C(=O)Nc4ccccc4N)sc3C2)cc1 [Example 93, N-(2-aminophenyl)-5-(4-methoxybenzoyl)-4,5,6,7-tetrahydro[1,3]thiazolo[5,4-c]pyridine-2-carboxamide]",≥ 0.2 µM
6,"COCC(=O)N1CCc2nc(C(=O)Nc3ccccc3N)sc2C1 [Example 177, N-(2-aminophenyl)-5-(methoxyacetyl)-4,5,6,7-tetrahydro[1,3]thiazolo[5,4-c]pyridine-2-carboxamide]",≥ 0.2 µM
7,"COc1ccc(S(=O)(=O)N2CCc3nc(C(=O)Nc4cc(OC)ccc4N)sc3C2)cc1 [Example 171, N-(2-amino-5-methoxyphenyl)-5-[(4-methoxyphenyl)sulfonyl]-4,5,6,7-tetrahydro[1,3]thiazolo[5,4-c]pyridine-2-carboxamide]",≥ 0.2 µM
8,"Nc1ccccc1NC(=O)c1nc2c(s1)CN(C(=O)Nc1ccccc1OC(F)(F)F)CC2 [Example 8, N^2-(2-aminophenyl)-N5-[2-(trifluoromethoxy)phenyl]-6,7-dihydro[1,3]thiazolo[5,4-c]pyridine-2,5(4H)-dicarboxamide]",≥ 0.2 µM
9,"CC(C)c1ccc(N)c(NC(=O)c2nc3c(s2)CN(C(=O)Nc2ccc(N(C)C)cc2)CC3)c1 [Example 50, N^2-(2-amino-5-isopropylphenyl)-N^5-[4-(dimethylamino)phenyl]-6,7-dihydro[1,3]thiazolo[5,4-c]pyridine-2,5(4H)-dicarboxamide]",≥ 0.2 µM
10,"COc1ccc(N)c(NC(=O)c2nc3c(s2)CN(C(=O)Nc2cccc4cnccc24)CC3)c1 [Example 46, N^2-(2-amino-5-methoxyphenyl)-N^5-isoquinolin-5-yl-6,7-dihydro[1,3]thiazolo[5,4-c]pyridine-2,5(4H)-dicarboxamide]",≥ 0.2 µM
11,"Nc1ccccc1NC(=O)c1nc2c(s1)CN(S(=O)(=O)c1cccc(OC(F)(F)F)c1)CC2 [Example 167, N-(2-aminophenyl)-5-{[3-(trifluoromethoxy)phenyl]sulfonyl}-4,5,6,7-tetrahydro[1,3]thiazolo[5,4-c]pyridine-2-carboxamide]",≥ 0.2 µM
12,"CCCCNC(=O)C(=O)N1CCc2nc(C(=O)Nc3ccccc3N)sc2C1 [Example 79, N-(2-aminophenyl)-5-[(butylamino)(oxo)acetyl]-4,5,6,7-tetrahydro[1,3]thiazolo[5,4-c]pyridine-2-carboxamide]",≥ 0.2 µM
13,"COc1ccc(N=C(C)N2CCc3nc(C(=O)Nc4ccccc4N)sc3C2)cc1OC [Example 127, N-(2-aminophenyl)-5-[N-(3,4-dimethoxyphenyl)ethanimidoyl]-4,5,6,7 tetrahydro[1,3]thiazolo[5,4-c]pyridine-2-carboxamide]",≥ 0.2 µM
14,"CC(=O)Nc1nc(C)c(S(=O)(=O)N2CCc3nc(C(=O)Nc4ccccc4N)sc3C2)s1 [Example 159, 5-[(2-acetamido-4-methyl-1,3-thiazol-5-yl)sulfonyl]-N-(2-aminophenyl)-4,5,6,7-tetrahydro[1,3]thiazolo[5,4-c]pyridine-2-carboxamide]",≥ 0.2 µM
15,"CN(C)c1ccc(NC(=O)C(=O)N2CCc3nc(C(=O)Nc4ccccc4N)sc3C2)cc1 [Example 64, N-(2-aminophenyl)-5-[{[4-(dimethylamino)phenyl]amino}(oxo)acetyl]-4,5,6,7-tetrahydro[1,3]thiazolo[5,4-c]pyridine-2-carboxamide]",≥ 0.2 µM
16,"CN(C)c1ccc(NC(=S)N2CCc3nc(C(=O)Nc4ccccc4N)sc3C2)cc1 [Example 99, N-(2-aminophenyl)-5-({[4-(dimethylamino)phenyl]amino}carbonothioyl)-4,5,6,7-tetrahydro[1,3]thiazolo[5,4-c]pyridine-2-carboxamide]",≥ 0.2 µM

# From patent US8440830B2, “Tetrahydro-fused pyridines as histone deacetylase inhibitors” (4SC AG, priority 2007, dated 2013)
